From publication PMC1084349 (BMC Neuroscience, 2005)
Where a SMILES comes first, the peptide text is derived from it.

Molecular target: T1, rTas1r2-rTas1r3 V738A (Rattus norvegicus, UniProt Q923K1+Q9Z0R7, V738A)
T1 construct: expressed in transfected cells; host or cells: HEK293T cells stably expressing Gα16gust44
T1 sequence (Q9Z0R7 20-843): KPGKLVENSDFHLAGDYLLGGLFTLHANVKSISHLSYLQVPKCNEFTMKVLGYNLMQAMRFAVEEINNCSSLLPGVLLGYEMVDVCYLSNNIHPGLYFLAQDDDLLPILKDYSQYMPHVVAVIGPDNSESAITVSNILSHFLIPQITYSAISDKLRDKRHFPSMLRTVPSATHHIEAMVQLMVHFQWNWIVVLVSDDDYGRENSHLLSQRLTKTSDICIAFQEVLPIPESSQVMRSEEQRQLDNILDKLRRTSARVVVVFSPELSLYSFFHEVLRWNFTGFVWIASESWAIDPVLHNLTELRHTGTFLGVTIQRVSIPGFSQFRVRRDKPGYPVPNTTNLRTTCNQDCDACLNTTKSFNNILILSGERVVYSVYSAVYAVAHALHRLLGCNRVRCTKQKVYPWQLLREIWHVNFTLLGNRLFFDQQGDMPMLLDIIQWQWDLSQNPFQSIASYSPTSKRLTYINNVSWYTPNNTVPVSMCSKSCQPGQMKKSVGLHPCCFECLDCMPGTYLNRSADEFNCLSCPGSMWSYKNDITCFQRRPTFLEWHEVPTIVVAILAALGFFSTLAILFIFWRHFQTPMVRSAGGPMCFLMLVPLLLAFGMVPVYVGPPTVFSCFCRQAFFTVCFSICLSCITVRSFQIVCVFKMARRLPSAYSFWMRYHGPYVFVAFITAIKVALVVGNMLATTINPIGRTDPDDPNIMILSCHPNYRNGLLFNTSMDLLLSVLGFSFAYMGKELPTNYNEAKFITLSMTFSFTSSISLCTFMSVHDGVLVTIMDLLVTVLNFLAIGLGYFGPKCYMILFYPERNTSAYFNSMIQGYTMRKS
T1 sequence (Q923K1 21-858 V738A): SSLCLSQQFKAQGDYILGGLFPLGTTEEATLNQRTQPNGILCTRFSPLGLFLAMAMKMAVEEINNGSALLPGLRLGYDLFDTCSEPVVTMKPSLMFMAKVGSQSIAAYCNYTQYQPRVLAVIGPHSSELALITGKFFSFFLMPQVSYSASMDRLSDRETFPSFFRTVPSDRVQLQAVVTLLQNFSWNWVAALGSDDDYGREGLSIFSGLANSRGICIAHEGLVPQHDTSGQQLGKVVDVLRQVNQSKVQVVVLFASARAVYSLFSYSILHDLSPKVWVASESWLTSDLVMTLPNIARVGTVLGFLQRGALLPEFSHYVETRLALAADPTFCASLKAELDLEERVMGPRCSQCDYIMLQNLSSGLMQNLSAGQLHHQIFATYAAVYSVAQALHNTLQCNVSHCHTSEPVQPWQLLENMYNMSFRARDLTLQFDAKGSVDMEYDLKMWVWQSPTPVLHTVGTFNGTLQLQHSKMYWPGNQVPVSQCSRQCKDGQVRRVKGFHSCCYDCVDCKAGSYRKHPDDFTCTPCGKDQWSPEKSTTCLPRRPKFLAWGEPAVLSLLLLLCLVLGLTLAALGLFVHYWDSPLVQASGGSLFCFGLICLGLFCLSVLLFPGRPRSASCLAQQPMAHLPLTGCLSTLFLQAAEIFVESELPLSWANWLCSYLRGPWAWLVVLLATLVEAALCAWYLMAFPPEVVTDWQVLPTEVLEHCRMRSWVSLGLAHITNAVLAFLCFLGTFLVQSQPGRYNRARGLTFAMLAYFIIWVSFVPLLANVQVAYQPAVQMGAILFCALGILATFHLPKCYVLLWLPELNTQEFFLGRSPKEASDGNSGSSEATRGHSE
Assay: Calcium mobilization (FLIPR), rTas1r3-V738A variant
Assay type: cell-based
Details: asp 15 mM; cyc 30 mM; neo 0.1 mM; sac 10 mM; suc 100 mM; stev 1 mM
From the text: Receptor mutants were generated by site directed mutagenesis according to the QuikChange protocol (Stratagene). The forward and reverse complement primers contained the desired mutations and annealed to the same sequence on opposite strands of the plasmids. The following rTas1r3 receptor variants were generated: m1: S576L; m2: R632Q, S635P, S637Q; m3: M644L A645S; m4: A702T; m5: Q717H, V718M, V723A, E725V; m6: L735F, V738A, I740A. m6/1: V738A, I740A, m6/2: L735F, I740A, m6/3: L735F, V738A. m7: A793V, Y794L, Q795R. Subsequently a rTas1r3-V738A variant was generated. All constructs were checked by sequencing.
The cDNAs were transiently transfected into HEK293T cells stably expressing the chimeric G-protein subunit Gα16gust44 [20] using Lipofectamine 2000 (Invitrogen) according to the manufacturer's protocol. 3–4 hours after transfection, DMEM was replaced by low-glucose DMEM supplemented with GlutaMAX and 10% dialyzed FBS (Invitrogen). 22–44 hours later, cells were loaded for 1 hour with the calcium sensitive dye Fluo4-AM (2 μg/ml in DMEM, Molecular Probes). […] Calcium mobilization was monitored by an automated fluorometric imaging plate reader (FLIPR, Molecular Devices). Ligands (Sigma-Aldrich, Merck) were dissolved in C1 solution. All data were collected from at least two independent experiments carried out in triplicate. The obtained calcium signals were corrected for the response of mock transfected cells and normalized to the fluorescence of cells prior to the stimulus using ΔF/F=(F-F0)/F0.
(a, b) Responses of cells co-transfected with rTas1r2 and rTas1r3 mutants to stimulation with 1 mM stevioside. […] All sweeteners were used at concentrations which were close to the maximal obtainable signal.

Compound	activation of receptor (calcium response)
C=C1C[C@@]23CC[C@H]4[C@@](C)(CCC[C@@]4(C)C(=O)O[C@@H]4O[C@H](CO)[C@@H](O)[C@H](O)[C@H]4O)[C@@H]2CC[C@]1(O[C@@H]1O[C@H](CO)[C@@H](O)[C@H](O)[C@H]1O[C@@H]1O[C@H](CO)[C@@H](O)[C@H](O)[C@H]1O)C3 [stevioside]	activated
O=S(=O)(O)NC1CCCCC1 [cyclamate]	not
COc1ccc(CCC(=O)c2c(O)cc(O[C@@H]3O[C@H](CO)[C@@H](O)[C@H](O)[C@H]3O[C@@H]3O[C@@H](C)[C@H](O)[C@@H](O)[C@H]3O)cc2O)cc1O [neohesperidine dihydrochalcone]	not
OC[C@H]1O[C@@](CO)(O[C@H]2O[C@H](CO)[C@@H](O)[C@H](O)[C@H]2O)[C@@H](O)[C@@H]1O [sucrose]	activated
COC(=O)[C@H](Cc1ccccc1)NC(=O)[C@@H](N)CC(=O)O [aspartame] (HELM PEPTIDE1{D.F.[CO[*:1]]}$$$$V2.0)	not
